Measured values: ChEMBL document CHEMBL1132977 (J Med Chem, 2000)

What follows are molecules tested against Peptidyl-prolyl cis-trans isomerase FKBP1A (Homo sapiens, UniProt P62942, F36V) (assay: Binding affinity for Mutant F36V-FK506 binding protein by competitive assay based on fluorescence polarization.).
Chain of Peptidyl-prolyl cis-trans isomerase FKBP1A (P62942 2-108 F37V limits assumed): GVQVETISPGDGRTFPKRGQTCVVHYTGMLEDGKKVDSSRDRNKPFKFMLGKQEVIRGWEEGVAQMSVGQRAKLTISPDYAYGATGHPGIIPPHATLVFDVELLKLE
Molecule CC[C@H](C(=O)N1CCCC[C@H]1C(=O)O[C@H](CCc1ccc(OC)c(OC)c1)c1cccc(OCC(=O)O)c1)c1ccccc1 has an IC50 of 40 nM. For CC[C@H](C(=O)N1CCCC[C@H]1C(=O)O[C@H](CCc1ccc(OC)c(OC)c1)c1cccc(OCC(=O)O)c1)c1cc(OC)c(OC)c(OC)c1, the IC50 was 1.8 nM. In the case of C=CC[C@@H](C(=O)N1CCCC[C@H]1C(=O)OC(CCc1ccc(OC)c(OC)c1)c1cccc(OCC(=O)O)c1)c1cc(OC)c(OC)c(OC)c1 (stereo partly drawn), the IC50 is reported as 19 nM. Work on COc1ccc(CCC(OC(=O)[C@@H]2CCCCN2C(=O)[C@@H](C)c2ccccc2)c2cccc(OCC(=O)O)c2)cc1OC (stereo partly drawn) yielded an IC50 of 94 nM. With CCC[C@H](C(=O)N1CCCC[C@H]1C(=O)OC(CCc1ccc(OC)c(OC)c1)c1cccc(OCC(=O)O)c1)c1cc(OC)c(OC)c(OC)c1 (stereo partly drawn) the IC50 was 3.8 nM. Molecule COc1ccc(CCC(OC(=O)[C@@H]2CCCCN2C(=O)[C@H](CC2CC2)c2cc(OC)c(OC)c(OC)c2)c2cccc(OCC(=O)O)c2)cc1OC (stereo partly drawn) has an IC50 of 126 nM. COc1ccc(CCC(OC(=O)[C@@H]2CCCCN2C(=O)[C@H](c2ccccc2)C(C)C)c2cccc(OCC(=O)O)c2)cc1OC (stereo partly drawn) showed an IC50 of 150 nM. With CC[C@@H](C(=O)N1CCCC[C@H]1C(=O)OC(CCc1ccc(OC)c(OC)c1)c1cccc(OCC(=O)O)c1)c1ccccc1 (stereo partly drawn) the IC50 was 133 nM. COc1ccc(CCC(OC(=O)[C@@H]2CCCCN2C(=O)[C@@H](c2cc(OC)c(OC)c(OC)c2)C(C)C)c2cccc(OCC(=O)O)c2)cc1OC (stereo partly drawn) was tested, and the IC50 was 65 nM. Work on COc1ccc(CCC(OC(=O)[C@@H]2CCCCN2C(=O)[C@@H](CC2CC2)c2cc(OC)c(OC)c(OC)c2)c2cccc(OCC(=O)O)c2)cc1OC (stereo partly drawn) yielded an IC50 of 4.4 nM. CCC[C@@H](C(=O)N1CCCC[C@H]1C(=O)OC(CCc1ccc(OC)c(OC)c1)c1cccc(OCC(=O)O)c1)c1cc(OC)c(OC)c(OC)c1 (stereo partly drawn) was tested, and the IC50 was 43 nM. COc1ccc(CCC(OC(=O)[C@@H]2CCCCN2C(=O)[C@H](c2cc(OC)c(OC)c(OC)c2)C(C)C)c2cccc(OCC(=O)O)c2)cc1OC (stereo partly drawn) gave an IC50 of 5.8 nM. COc1ccc(CCC(OC(=O)[C@@H]2CCCCN2C(=O)[C@@H](c2ccccc2)C(C)C)c2cccc(OCC(=O)O)c2)cc1OC (stereo partly drawn) gave an IC50 of 19 nM. With C=CC[C@H](C(=O)N1CCCC[C@H]1C(=O)OC(CCc1ccc(OC)c(OC)c1)c1cccc(OCC(=O)O)c1)c1cc(OC)c(OC)c(OC)c1 (stereo partly drawn) the IC50 was 1.5 nM. Work on COc1ccc(CC[C@@H](OC(=O)[C@@H]2CCCCN2C(=O)Cc2ccccc2)c2cccc(OCC(=O)O)c2)cc1OC yielded an IC50 of 1530 nM. With COc1ccc(CCC(OC(=O)[C@@H]2CCCCN2C(=O)[C@H](C)c2ccccc2)c2cccc(OCC(=O)O)c2)cc1OC (stereo partly drawn) the IC50 was 590 nM. CC[C@@H](C(=O)N1CCCC[C@H]1C(=O)OC(CCc1ccc(OC)c(OC)c1)c1cccc(OCC(=O)O)c1)c1cc(OC)c(OC)c(OC)c1 (stereo partly drawn) was tested, and the IC50 was 187 nM. COc1ccc(CCC(OC(=O)[C@@H]2CCCCN2C(=O)C(c2ccccc2)c2ccccc2)c2cccc(OCC(=O)O)c2)cc1OC (stereo partly drawn) gave an IC50 of 273 nM.
